In US8853227B2, “Methotrexate adjuvants to reduce toxicity and methods for using the same” (Tosk, Incorporated, priority 2008, dated 2014):
Entries after “also recorded” stand apart in the source; their conditions may differ.

Tests used:
AS283 cells = experiment: Cell Culture Study II (MTX cytotoxicity, CellTiter-Glo); assay type: cell-based, human; conditions: 72 hours
Protocol: In this study, AS283 cells were grown in RPMI-1640 supplemented with L-glutamine dipeptide, sodium pyruvate, HEPES, and 10% FBS. AS283 cells were used to seed three 96-well plates with 10,000 cells/well in a total volume of 50 μL. Medium alone wells were seeded 100 μL medium. Plates were incubated overnight. The following day, 25 μL of the TK-112690 and MTX stock solutions were added to the appropriate wells. TK-112690 was added first, followed by MTX in all wells. 25 μL of vehicle was added to TK-112690 alone wells. 25 μL of vehicle and 25 μL medium were added to vehicle control wells, and 50 μL medium was added to cell control wells. Cell viability was measured using CellTiter-Glo and DOX (10 μM) was used as a reference standard. The plates were incubated at 37° C., 5% CO2 for 72 hours then removed from the incubator and placed on the bench at room temperature for 30 min. The plates were not stacked or shaken. […] Luminescence was recorded on TriLux. […]
AS283 cells were grown in RPMI-1640 supplemented with L-glutamine dipeptide, sodium pyruvate, HEPES, and 10% FBS. […] Cell viability was measured using CellTiter-Glo and DOX (10 μM) was used as a reference standard.
The plates were incubated at 37° C., 5% CO2 for 72 hours then removed from the incubator and placed on the bench at room temperature for 30 min. […] Luminescence was recorded on TriLux.

[1] = Mouse Study III (infection study, WBC counts); assay type: in vivo, C57BL/6 mice; conditions: Day 11
Protocol: C57BL/6 mice (n=10/dose group), treated i.p. 50 mg/kg MTX on Day 1, 2, 3, 4, 6 and 8 along with 60 mg/kg TK-112690 i.p. 3 hr±MTX followed by single daily doses TK-112690 on days not treated with MTX. On Day 11, the animals were sacrificed and hematology performed on the resulting blood. Group 1=saline control, Group 2=MTX control and Group 3=MTX+TK-112690.
For the study whose data are presented in FIG. 4, C57BL/6 mice (n=10/dose group) were treated i.p. with 50 mg/kg MTX on Day 1, 2, 3, 4, 6 and 8 along with 60 mg/kg TK-112690 i.p. 3 hr±MTX followed by single daily doses TK-112690 on days not treated with MTX. On Day 11, the animals were bled and hematology performed on the resulting blood samples. Following the hematology measurements, the animals were sacrificed.

[2] = tested on: Wild-type (Oregon-R) Drosophila melanogaster; experiment: Fly Study II, MTX lethality in wild-type flies; assay type: in vivo
Protocol: Embryos of UPase knockout (19519) Drosophila melanogaster were orally exposed to a dose range of MTX doses in food admix. Embryos of Wild-type (Oregon-R) were orally exposed to the same dose range of MTX in presence and absence of 0.04 mg TK-112690. Scoring was based on life or death 15 days after initiation of MTX exposure. […] Wild-type D. melanogaster are sensitive to lethal effects of 0.1 mg MTX.
The aim of this study was to evaluate the lethal effects of a range (0.001, 0.01, 0.05, 0.1, 0.2, 0.4 mg) of doses of orally fed MTX in wild-type (Ore-R) and UPase mutant Drosophila melanogaster. Embryos of UPase knockout (19519) Drosophila melanogaster were orally exposed to a dose range of MTX (0.001, 0.01, 0.05, 0.1, 0.2, 0.4 mg) in food admix. Embryos of Wild-type (Oregon-R) were orally exposed to the same dose range of MTX in presence and absence of 0.04 mg TK-112690. Scoring was based on life or death 15 days after initiation of MTX exposure.

Compound | cytotoxicity to AS283 cancer cells (AS283 cells; MTX 0.01-100 μM) | systemic WBC level ([1]; 50 mg/kg MTX ip Day 1, 2, 3, 4, 6, 8, p<0.02 vs saline or MTX+TK-112690) | MTX dose lethal to wild-type flies ([2]; oral in food admix, 15 days after initiation of MTX exposure) [mg] | effect of TK-112690 on MTX cytotoxicity (cell viability) (AS283 cells; TK-112690 1, 10, 100 μM + MTX 0.01-100 μM) | protection from MTX-induced mucositis measured as prevention of WBC increase ([1]; 60 mg/kg ip 3 hr ± MTX 50 mg/kg) | sensitivity of wild-type flies to lethal effects of MTX in the presence of TK-112690 ([2]; 0.04 mg TK-112690, MTX 0.001-0.4 mg oral, 15 days) | methotrexate dose from whose lethality TK-112690 protects ([2]; 0.04 mg TK-112690, wild-type flies, 15 days) [mg]
CN(Cc1cnc2nc(N)nc(N)c2n1)c1ccc(C(=O)N[C@@H](CCC(=O)O)C(=O)O)cc1 [MTX, N-[4-[[(2,4-diamino-6-pteridinyl)methyl]methylamino]benzoyl]-L-glutamic acid, reference compound] | cytotoxic | increases systemic WBC | 0.1 | – | – | – | –
Cc1cn2c(nc1=O)O[C@H]1[C@H](O)[C@@H](CO)O[C@H]12 [TK-112690, 2,2′-anhydro-5-methyluridine] | – | – | – | did not diminish the cytotoxicity of MTX; also recorded: no statistical difference | protects from MTX-induced mucositis | resistant to the lethal effects | ≤ 0.4
